Laboratory results from patent publication US20210239702A1, “METHODS FOR PREDICTING RESPONSIVENESS OF LUNG CANCER PATIENTS TO HER2-TARGETING THERAPIES” (MEMORIAL SLOAN KETTERING CANCER CENTER, priority 2018, published 2021).

Tests used:
HER2 mutant lung cancers = tested on: HER2 mutant lung cancers
Source text: (§1) Patients with stage 4 or recurrent HER2 mutant lung cancers were enrolled in the cohort, as illustrated in the basket trial scheme in FIG. 1. Other cohorts of this basket trial included HER2 amplified lung, bladder and other solid tumors, as illustrated by FIG. 1. HER2 mutations were identified through next generation sequencing (NGS) including exon 20 insYVMA, insGSP, insTGT, single base pair substitutions L755A, L755S, V777L, V659E, S310F or other likely activating mutations. Other inclusion criteria included age (≥18 years old), Karnofsky performance status (≥70%), measurable disease by Response Evaluation Criteria in Solid Tumors (RECIST) v1.1, and adequate left ventricular, bone marrow, and hepatic function.
Physical examination and safety assessments were performed every 3 weeks. Tumor assessments using contrast enhanced computed tomography of the chest, abdomen, and pelvis were performed at baseline, week 6, week 12, and every 12 weeks thereafter until disease progression was observed. Brain imaging was not routinely performed unless clinically indicated. Left ventricular ejection fraction measurements by echocardiography or multi-gated acquisition scan were performed at baseline then every 3 months. […] Secondary objectives included assessment of progression-free survival (PFS) and toxicity according to the National Cancer Institute Common Terminology Criteria for Adverse Events version 4.1 (NCI CTCAE v4.1). The molecular associations between HER2 mutations, HER2 amplification and HER2 protein expression were examined using different molecular diagnostic assays whenever archival tissue was available. NGS assessed for HER2 mutation and amplification, fluorescence in situ hybridization (FISH) assessed for HER2 amplification, and HER2 protein overexpression was assessed by immunohistochemistry (IHC) and quantitative mass spectrometry. FISH was performed using FDA approved probe sets (PathVysion, Abbott Molecular, Chicago, Ill. and HER2 IQFISH pharmDx, Agilent, Santa Clara, Calif.) and positive HER2 amplification was defined as HER2/CEP17 ratio ≥2.0. HER2 protein by IHC was assessed using the 4B5 Ventana antibody (Ventana Medical Systems, Oro Valley Ariz.). Quantitative HER2 protein by selected reaction monitoring mass spectrometry on fixed-formalin paraffin-embedded tissue was performed using methods previously validated in breast cancers, with ≥740 amol/ug as the cutoff for high HER2 expression (see Nuciforo P., et al., Mol. Oncol., 10:138-147 (2016)).
Target accrual was a minimum of 7 patients (stage 1) and maximum of 18 patients (stage 1 and 2) in each cohort. The primary endpoint was best confirmed overall response rate (ORR) per RECIST v1.1. The Simon's optimal two-stage design was employed with a multiple testing adjusted type I error rate for each cohort. For a targeted agent where higher response rates were expected, a true ORR of ≤10% was considered unacceptable (null hypothesis), whereas a true ORR of ≥40% merited further study (alternative hypothesis). In the first stage, 7 patients were accrued; if there were no responses observed at interim analysis of the 7 patients in a particular cohort, the cohort was closed. Otherwise, 11 additional patients were accrued for a total of 18 patients. […] The overall family-wise error rate at the study level was <10%. The exact 95% CI for ORR was calculated using the Clopper-Pearson method. PFS time was estimated by the Kaplan-Meier method. Follow-up time was calculated from the start of treatment to the most recent patient follow-up assessment.

[1] = tested on: HER2-amplified salivary gland cancers; details: FLIM-FRET positive in 3/3
Source text: as §1

With ado-trastuzumab emtansine the “outcome of patients with active untreated brain metastases at enrollment” value (HER2 mutant lung cancers; 2 patients, first response assessment) was “both patients had progression of disease systemically and in the central nervous system”, the “patients with progression of disease as best response” value (HER2 mutant lung cancers; 3 of 18 patients) was 17% and the “responders among patients pretreated with prior systemic therapy” value (HER2 mutant lung cancers; 6 of 15 pretreated patients) was 40%. The “median PFS for the responders” value (HER2 mutant lung cancers; 95% CI 4 months to not reached) was 6 months, the “median PFS for all patients” value (HER2 mutant lung cancers; N=18, 95% CI 3 to 9 months) was 5 months and the “overall response rate (ORR, all partial and confirmed)” value (HER2 mutant lung cancers; RECIST v1.1, 3.6 mg/kg IV every 21 days, 18 patients, 95% CI 22-69%) was 44%. For the same substance, the “patients who achieved stable disease” value (HER2 mutant lung cancers; in vivo) was 39%, the “patients with confirmed radiologic partial response” value (HER2 mutant lung cancers; out of 18 patients with ERBB2-mutant lung cancers) was 8 and the “longest PFS observed / durable disease control” value (HER2 mutant lung cancers; patient with stable disease as best response, -27% tumor shrinkage) was ≥ 11 months. For the same substance, the “median time to response from start of treatment” value (HER2 mutant lung cancers; range 1 to 4 months) was 2 months, the “median duration of response” value (HER2 mutant lung cancers; range 2 to 9 months) was 4 months and the “response among FLIM-FRET positive patients” value [1] was “all 3 patients responded”.
